Laboratory results from patent US11464770B2, “Anticancer pharmaceutical composition” (NATIONAL CANCER CENTER, priority 2016, dated 2022).
Read-outs that look alike come from different tables or passages of the source.

What was measured:
[1] = system: lung cancer cell lines (e.g. NCI-H23, NCI-H1229); experiment: Cell based assay, cell viability (CellTiter-Glo), lung cancer cell lines; details: Homo sapiens, 72 hours treatment, CellTiter-Glo
Experimental: (§1) Commercially available bladder cancer, prostate cancer, lung cancer, breast cancer, blood cancer, pancreatic cancer, colorectal cancer, brain cancer, neuroblastoma, melanoma, liver cancer, cervical carcinoma, ovarian cancer, renal cancer, and papilloma cell lines were each treated with trypsin-EDTA and cultured, followed by being seeded in each well of a 96 well plate. After 24 hours of treatment at constant temperature, the respective cells were treated with the candidate compound so that a final concentration became 0 to 2 μM. The treated cells were additionally cultured for 72 hours, and cell viability was measured by using an ATP detection method (CellTiter-Glo® Luminescent Cell Viability Assay, Promega).

[2] = system: RT4: human urinary bladder transitional cell papilloma; experiment: Cell based assay, cytotoxicity in RT4 papilloma cells (selectivity); details: Homo sapiens, RT-4; RT4 cells
Experimental: as §1, with “After 24 hours of treatment at constant temperature, the respective cells were treated with the candidate compound so that a final concentration became 0 to 2 μM.” left out

[3] = system: cervical carcinoma cell lines; experiment: Cell based assay, cell viability (CellTiter-Glo), cervical carcinoma cell lines; details: Homo sapiens; HeLa cells
Experimental: as §1, with “After 24 hours of treatment at constant temperature, the respective cells were treated with the candidate compound so that a final concentration became 0 to 2 μM.” left out

[4] = system: ovarian cancer cell lines; experiment: Cell based assay, cell viability (CellTiter-Glo), ovarian cancer cell lines; details: Homo sapiens; OVCAR-3 cells
Experimental: as §1

[5] = A549 cells, read-out: IC50, lung cancer cell line A549
[6] = DMS 114 cells, read-out: IC50, lung cancer cell line DMS 114
[7] = NCI-H23 cells, read-out: IC50, lung cancer cell line NCI-H23
[8] = NCI-H460 cells, read-out: IC50, lung cancer cell line NCI-H460
[9] = NCI-H522 cells, read-out: IC50, lung cancer cell line NCI-H522
[10] = NCI-H1299 cells, read-out: IC50, lung cancer cell line NCI-H1299
[11] = NCI-H1437 cells, read-out: IC50, lung cancer cell line NCI-H1437

IC50 [1, 5]	IC50 [1, 6]	IC50 [1, 7]	IC50 [1, 8]	IC50 [1, 9]	IC50 [1, 10]	IC50 [1, 11]	IC50 [3]	IC50 [4]	SMILES	IC50 ([1]; MRC-5 cells, read-out: IC50)	IC50 [2]
> 2 µM	> 2 µM	> 2 µM	> 2 µM	> 2 µM	> 2 µM	> 10 µM	> 10 µM	> 2 µM	CC(=O)c1c(SCc2ccccc2)n(C(=O)c2ccc(Br)cc2)c2c(Br)ccc(Cl)c2c1=O [Compound 23, 3-acetyl-2-(benzylthio)-8-bromo-1-(4-bromobenzoyl)-5-chloroquinolin-4(1H)-one]	> 2 µM	> 10 µM
> 2 µM	> 2 µM	> 2 µM	> 2 µM	> 2 µM	> 2 µM	> 10 µM	> 10 µM	> 2 µM	CC(=O)c1c(SC(C)C)[nH]c2c(Br)ccc(Cl)c2c1=O [Compound 24, 3-acetyl-8-bromo-5-chloro-2-(isopropylthio)quinolin-4(1H)-one]	> 2 µM	> 10 µM
> 2 µM	> 2 µM	> 2 µM	> 2 µM	> 2 µM	> 2 µM	> 10 µM	> 10 µM	> 2 µM	CC(=O)c1c([S+]([O-])C(C)C)[nH]c2c(Br)ccc(Cl)c2c1=O (stereo not drawn) [Compound 25, 3-acetyl-8-bromo-5-chloro-2-(isopropylsulfinyl)quinolin-4(1H)-one]	> 2 µM	> 10 µM
> 2 µM	> 2 µM	> 2 µM	> 2 µM	> 2 µM	> 2 µM	> 10 µM	> 10 µM	> 2 µM	CC(=O)c1c([S+]([O-])C(C)c2ccccc2)[nH]c2c(Br)ccc(Cl)c2c1=O (stereo not drawn) [Compound 26, 3-acetyl-8-bromo-5-chloro-2-((1-phenylethyl)sulfinyl)quinolin-4(1H)-one]	> 2 µM	> 10 µM
> 2 µM	> 2 µM	> 2 µM	> 2 µM	> 2 µM	> 2 µM	> 10 µM	> 10 µM	> 2 µM	CC(=O)c1c(SCc2cccc(C#N)c2)[nH]c2c(Br)ccc(Cl)c2c1=O [Compound 27, 3-(((3-acetyl-8-bromo-5-chloro-4-oxo-1,4-dihydroquinolin-2-yl)thio)methyl)benzonitrile]	> 2 µM	> 10 µM
> 2 µM	> 2 µM	0.75 µM	1.6 µM	1.88 µM	1.11 µM	> 10 µM	> 10 µM	0.69 µM	CC(=O)c1c([S+]([O-])Cc2cccc(C#N)c2)[nH]c2c(Br)ccc(Cl)c2c1=O (stereo not drawn) [Compound 28, 3-(((3-acetyl-8-bromo-5-chloro-4-oxo-1,4-dihydroquinolin-2-yl)sulfinyl)methyl)benzonitrile]	0.7 µM	> 10 µM
> 2 µM	> 2 µM	> 2 µM	> 2 µM	> 2 µM	> 2 µM	> 10 µM	> 10 µM	> 2 µM	CC(=O)c1c(SCc2ccc(F)c(Cl)c2)[nH]c2c(Br)ccc(Cl)c2c1=O [Compound 30, 3-acetyl-8-bromo-5-chloro-2-((3-chloro-4-fluorobenzyl)thio)quinolin-4(1H)-one]	> 2 µM	> 10 µM
> 2 µM	> 2 µM	> 2 µM	> 2 µM	> 2 µM	> 2 µM	> 10 µM	> 10 µM	> 2 µM	CC(=O)c1c(SCc2ccc([N+](=O)[O-])cc2)[nH]c2c(Br)ccc(Cl)c2c1=O [Compound 32, 3-acetyl-8-bromo-5-chloro-2-((4-nitrobenzyl)thio)quinolin-4(1H)-one]	> 2 µM	> 10 µM
> 2 µM	> 2 µM	> 2 µM	> 2 µM	> 2 µM	> 2 µM	> 10 µM	> 10 µM	> 2 µM	CSc1c(C(C)=O)c(=O)c2c(Cl)ccc(Br)c2n1S(C)(=O)=O [Compound 35, 3-acetyl-8-bromo-5-chloro-1-(methylsulfonyl)-2-(methylthio)quinolin-4(1H)-one]	> 2 µM	> 10 µM
> 2 µM	> 2 µM	> 2 µM	> 2 µM	> 2 µM	> 2 µM	> 10 µM	> 10 µM	> 2 µM	CC(=O)c1c([S+](C)[O-])n(S(=O)(=O)C(F)(F)F)c2c(Br)ccc(Cl)c2c1=O (stereo not drawn) [Compound 36, 3-acetyl-8-bromo-5-chloro-2-(methylsulfinyl)-1-((trifluoromethyl)sulfonyl)quinolin-4(1H)-one]	> 2 µM	> 10 µM
> 2 µM	> 2 µM	> 2 µM	> 2 µM	> 2 µM	> 2 µM	> 10 µM	> 10 µM	> 2 µM	CSc1c(C(C)=O)c(=O)c2c(Cl)ccc(Br)c2n1S(=O)(=O)c1ccc(Cl)cc1 [Compound 37, 3-acetyl-8-bromo-5-chloro-1-((4-chlorophenyl)sulfonyl)-2-(methylthio)quinolin-4(1H)-one]	> 2 µM	> 10 µM
> 2 µM	> 2 µM	> 2 µM	> 2 µM	> 2 µM	> 2 µM	> 10 µM	> 10 µM	> 2 µM	CSc1c(C(C)=O)c(=O)c2c(Cl)ccc(Br)c2n1S(=O)(=O)c1ccc([N+](=O)[O-])cc1 [Compound 38, 3-acetyl-8-bromo-5-chloro-2-(methylthio)-1-((4-nitrophenyl)sulfonyl)quinolin-4(1H)-one]	> 2 µM	> 10 µM
> 2 µM	> 2 µM	> 2 µM	> 2 µM	> 2 µM	> 2 µM	> 10 µM	> 10 µM	> 2 µM	CCS(=O)(=O)n1c([S+](C)[O-])c(C(C)=O)c(=O)c2c(Cl)ccc(Br)c21 (stereo not drawn) [Compound 39, 3-acetyl-8-bromo-5-chloro-1-(ethylsulfonyl)-2-(methylsulfinyl)quinolin-4(1H)-one]	> 2 µM	> 10 µM
> 2 µM	> 2 µM	> 2 µM	> 2 µM	> 2 µM	> 2 µM	> 10 µM	> 10 µM	> 2 µM	CSc1c(C(C)=O)c(=O)c2c(Cl)ccc(Br)c2n1S(=O)(=O)c1ccc(C(C)(C)C)cc1 [Compound 40, 3-acetyl-8-bromo-1-((4-(tert-butyl)phenyl)sulfonyl)-5-chloro-2-(methylthio)quinolin-4(1H)-one]	> 2 µM	> 10 µM
> 2 µM	> 2 µM	> 2 µM	> 2 µM	> 2 µM	> 2 µM	> 10 µM	> 10 µM	> 2 µM	CC(=O)c1c(S(C)(=O)=O)n(S(=O)(=O)c2ccc(C(C)(C)C)cc2)c2c(Br)ccc(Cl)c2c1=O [Compound 41, 3-acetyl-8-bromo-1-((4-(tert-butyl)phenyl)sulfonyl)-5-chloro-2-(methylsulfonyl)quinolin-4(1H)-one]	> 2 µM	> 10 µM
> 2 µM	> 2 µM	1.84 µM	> 2 µM	> 2 µM	> 2 µM	> 10 µM	> 10 µM	> 2 µM	CC(=O)c1c([S+](C)[O-])n(S(=O)(=O)c2ccc(C(C)(C)C)cc2)c2c(Br)ccc(Cl)c2c1=O (stereo not drawn) [Compound 42, 3-acetyl-8-bromo-1-((4-(tert-butyl)phenyl)sulfonyl)-5-chloro-2-(methylsulfinyl)quinolin-4(1H)-one]	> 2 µM	> 10 µM
> 2 µM	> 2 µM	> 2 µM	> 2 µM	> 2 µM	> 2 µM	> 10 µM	> 10 µM	> 2 µM	CC(=O)c1c(SCc2cc(Cl)ccc2Cl)[nH]c2c(Br)ccc(Cl)c2c1=O [Compound 43, 3-acetyl-8-bromo-5-chloro-2-((2,5-dichlorobenzyl)thio)quinolin-4(1H)-one]	> 2 µM	> 10 µM
> 2 µM	> 2 µM	> 2 µM	> 2 µM	> 2 µM	> 2 µM	> 10 µM	> 10 µM	> 2 µM	CC(=O)c1c(SCc2cc(F)cc(F)c2)[nH]c2c(Br)ccc(Cl)c2c1=O [Compound 45, 3-acetyl-8-bromo-5-chloro-2-((3,5-difluorobenzyl)thio)quinolin-4(1H)-one]	> 2 µM	> 10 µM
> 2 µM	> 2 µM	> 2 µM	> 2 µM	> 2 µM	> 2 µM	> 10 µM	> 10 µM	> 2 µM	CC(=O)c1c(SCc2cccc(I)c2)[nH]c2c(Br)ccc(Cl)c2c1=O [Compound 47, 3-acetyl-8-bromo-5-chloro-2-((3-iodobenzyl)thio)quinolin-4(1H)-one]	> 2 µM	> 10 µM
> 2 µM	> 2 µM	1.51 µM	> 2 µM	> 2 µM	> 2 µM	> 10 µM	> 10 µM	> 2 µM	CC(=O)c1c([S+]([O-])Cc2cccc(I)c2)[nH]c2c(Br)ccc(Cl)c2c1=O (stereo not drawn) [Compound 48, 3-acetyl-8-bromo-5-chloro-2-((3-iodobenzyl)sulfinyl)quinolin-4(1H)-one]	> 2 µM	> 10 µM
> 2 µM	> 2 µM	> 2 µM	> 2 µM	> 2 µM	> 2 µM	> 10 µM	> 10 µM	> 2 µM	CC(=O)c1c(SCc2cccc(F)c2)[nH]c2c(Br)ccc(Cl)c2c1=O [Compound 49, 3-acetyl-8-bromo-5-chloro-2-((3-fluorobenzyl)thio)quinolin-4(1H)-one]	> 2 µM	> 10 µM
